Read-outs that look alike come from different tables or passages of the source.
Molecular target: T1, human muscarinic acetylcholine M3 receptor (M3-ACh) (Homo sapiens, UniProt P20309)
T1 construct: expressed in transfected cells; host or cells: CHO-K1 (Chinese Hamster Ovary) cell membranes
Assay: biochemical
Assay type: binding

[1] = pIC50 (M3 Binding IC50 classes)
[2] = read-out: pIC50 (M3 Binding IC50 classes) (converted)

T1 sequence (P20309 whole entry): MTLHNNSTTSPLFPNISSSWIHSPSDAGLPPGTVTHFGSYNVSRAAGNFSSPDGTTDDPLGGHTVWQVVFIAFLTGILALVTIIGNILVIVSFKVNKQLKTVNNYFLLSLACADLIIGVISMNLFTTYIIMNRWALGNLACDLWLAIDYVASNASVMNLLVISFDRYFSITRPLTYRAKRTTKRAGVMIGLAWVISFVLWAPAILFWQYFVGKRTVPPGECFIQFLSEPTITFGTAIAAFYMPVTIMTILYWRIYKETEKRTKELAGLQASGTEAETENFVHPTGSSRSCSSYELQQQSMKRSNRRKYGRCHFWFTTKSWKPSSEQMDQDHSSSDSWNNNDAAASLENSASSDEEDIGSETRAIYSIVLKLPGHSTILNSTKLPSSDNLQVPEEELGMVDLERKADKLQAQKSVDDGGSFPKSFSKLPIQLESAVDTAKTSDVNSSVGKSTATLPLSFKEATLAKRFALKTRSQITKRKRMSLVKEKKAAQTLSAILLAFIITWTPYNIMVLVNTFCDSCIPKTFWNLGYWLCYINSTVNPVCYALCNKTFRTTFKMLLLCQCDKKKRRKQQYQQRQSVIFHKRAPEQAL

Structure (SMILES)	IC50 [1]	IC50 [2]
CC(C(=O)O[C@H]1C[N+]2(CC(=O)Nc3ccc(Cl)nn3)CCC1CC2)(c1cccs1)N1CCCCC1 (single isomer, unassigned) [Example 72]	< 2 nM	–
CC(C(=O)O[C@H]1C[N+]2(CCc3cccc(Cl)c3)CCC1CC2)(c1ccccc1)N1CCOCC1 (single isomer, unassigned) [Example 80]	2 to 10 nM	–
Cc1cnc(NC(=O)C[N+]23CCC(CC2)[C@@H](OC(=O)C(C)(c2cccs2)N2CCCCC2)C3)cn1 (single isomer, unassigned) [Example 76]	< 2 nM	–
Cn1c(=O)oc2cc(CC[N+]34CCC(CC3)[C@@H](OC(=O)[C@](C)(c3ccccc3)N3CCCCC3)C4)ccc21 [Example 25, (3R)-1-[2-(3-Methyl-2-oxo-2,3-dihydro-1,3-benzoxazol-6-yl)ethyl]-3-{[(2S)-2-phenyl-2-piperidin-1-ylpropanoyl]oxy}-1-azoniabicyclo(2.2.2]octane bromide]	< 2 nM	–
CC(C(=O)O[C@H]1C[N+]2(CCCc3ccccc3)CCC1CC2)(c1cccs1)N1CCSCC1 (single isomer, unassigned) [Example 50]	< 2 nM	–
CC(C(=O)O[C@H]1C[N+]2(CCc3cccc(Cl)c3)CCC1CC2)(c1ccccc1)N1CCOCC1 (single isomer, unassigned) [Example 79]	< 2 nM	–
CC(C(=O)O[C@H]1C[N+]2(CCCc3cccnc3)CCC1CC2)(c1ccccc1)N1CCCCCC1 (single isomer, unassigned) [Example 96]	< 2 nM	–
CC(C(=O)O[C@H]1C[N+]2(CCc3cccc(Cl)c3)CCC1CC2)(c1ccccc1)N1CCSCC1 (single isomer, unassigned) [Example 98]	< 2 nM	–
C[C@@](C(=O)O[C@H]1C[N+]2(CCCS(=O)(=O)c3ccc(C#N)cc3)CCC1CC2)(c1ccccc1)N1CCCCC1 [Example 35, (3R)-1-{3-[(4-Cyanophenyl)sulfonyl]propyl}-3-{[(2S)-2-phenyl-2-piperidin-1-ylpropanoyl]oxy}-1-azoniabicyclo[2.2.2]octane bromide]	2 to 10 nM	–
CC(C(=O)O[C@H]1C[N+]2(CC(=O)Nc3ccon3)CCC1CC2)(c1ccccc1)N1CCSCC1 (single isomer, unassigned) [Example 102]	< 2 nM	–
CC1(C)CN(C(C)(C(=O)O[C@H]2C[N+]3(CCCOc4ccccc4)CCC2CC3)c2ccc(Cl)cc2)C1 (single isomer, unassigned) [Example 46]	> 10 nM	–
CC(C(=O)O[C@H]1C[N+]2(CC(=O)Nc3noc4ccccc34)CCC1CC2)(c1cccs1)N1CCCCC1 (single isomer, unassigned) [Example 77]	< 2 nM	–
C[C@@](C(=O)O[C@H]1C[N+]2(CC(=O)c3ccccc3)CCC1CC2)(c1ccccc1)N1CCCCC1 [Example 9, (3R)-l-(2-Oxo-2-phenylethyl)-3-{[(2S)-2-phenyl-2-piperidin-1-ylpropanoyl]oxy}-1-azoniabicyclo[2.2.2]octane bromide]	< 2 nM	–
C[C@@](C(=O)O[C@H]1C[N+]2(CC(=O)Nc3ccc(C#N)cc3)CCC1CC2)(c1ccccc1)N1CCCCC1 [Example 11, (3R)-1-{2-[(4-Cyanophenyl)amino]-2-oxoethyl}-3-{[(2S)-2-phenyl-2-piperidin-1-ylpropanoyl]oxy}-1-azoniabicyclo[2.2.2]octane chloride]	2 to 10 nM	–
CC(C(=O)O[C@H]1C[N+]2(CCCOc3ccccc3)CCC1CC2)(c1cccs1)N1CCSCC1 (single isomer, unassigned) [Example 49]	< 2 nM	–
CC(C(=O)O[C@H]1C[N+]2(Cc3nc(-c4ccccc4)no3)CCC1CC2)(c1cccs1)N1CCSCC1 (single isomer, unassigned) [Example 56]	< 2 nM	–

Structure (SMILES)	IC50 [1]	IC50 [2]
CC(C(=O)O[C@H]1C[N+]2(CCc3cccc(Cl)c3)CCC1CC2)(c1ccccc1)N1CCCCCC1 (single isomer, unassigned) [Example 87]	–	< 2 nM
CC(C(=O)O[C@H]1C[N+]2(CC(=O)c3cccc(F)c3)CCC1CC2)(c1cccs1)N1CCCCC1 (single isomer, unassigned) [Example 67]	< 2 nM	–
CC(C(=O)O[C@H]1C[N+]2(CC(=O)Nc3cccc(F)c3)CCC1CC2)(c1ccccc1)N1CCCCCC1 (single isomer, unassigned) [Example 88]	< 2 nM	–
CC(C(=O)O[C@H]1C[N+]2(CC(=O)Nc3cccc(F)c3)CCC1CC2)(c1ccccc1)N1CCSCC1 (single isomer, unassigned) [Example 100]	< 2 nM	–
CC(C(=O)O[C@H]1C[N+]2(CC(=O)Nc3cccnn3)CCC1CC2)(c1ccccc1)N1CCSCC1 (single isomer, unassigned) [Example 101]	< 2 nM	–
C[C@@](C(=O)O[C@H]1C[N+]2(CC(=O)Nc3ccc4ncnn4c3)CCC1CC2)(c1ccccc1)N1CCCCC1 [Example 13, (3R)-1-[2-Oxo-2-([1,2,4]triazolo[1,5-a]pyridin-6-ylamino)ethyl]-3-{[(2S)-2-phenyl-2-piperidin-1-ylpropanoyl]oxy}-1-azoniabicyclo[2.2.2]octane chloride]	< 2 nM	–
CC(C(=O)O[C@H]1C[N+]2(CCCc3ccccc3)CCC1CC2)(c1ccccc1)N1CCCCCC1 (single isomer, unassigned) [Example 95]	–	< 2 nM
Cc1ccc(C(=O)C[N+]23CCC(CC2)[C@@H](OC(=O)[C@](C)(c2ccccc2)N2CCCCC2)C3)cc1 [Example 17, (3R)-1-[2-(4-Methylphenyl)-2-oxoethyl]-3-{[(2S)-2-phenyl-2-piperidin-1-ylpropanoyl]oxy}-1-azoniabicyclo[2.2.2]octane bromide]	< 2 nM	–
CC(C(=O)O[C@H]1C[N+]2(CC(=O)Nc3cnccn3)CCC1CC2)(c1cccs1)N1CCSCC1 (single isomer, unassigned) [Example 54]	< 2 nM	–
CC(C(=O)O[C@H]1C[N+]2(CC(=O)Nc3cccc(F)c3)CCC1CC2)(c1cccs1)N1CCSCC1 (single isomer, unassigned) [Example 53]	< 2 nM	–
CCOC(=O)Cc1csc(NC(=O)C[N+]23CCC(CC2)[C@@H](OC(=O)[C@](C)(c2ccccc2)N2CCCCC2)C3)n1 [Example 19, (3R)-1-(2-{[4-(2-Ethoxy-2-oxoethyl)-1,3-thiazol-2-yl]amino}-2-oxoethyl)-3-{[(2S)-2-phenyl-2-piperidin-1-ylpropanoyl]oxy}-1-azoniabicyclo[2.2.2]octane chloride]	2 to 10 nM	–
C[C@@](C(=O)O[C@H]1C[N+]2(CC(=O)Nc3ccc4[nH]ncc4c3)CCC1CC2)(c1ccccc1)N1CCCCC1 [Example 12, (3R)-1-[2-(1H-Indazol-5-ylamino)-2-oxoethyl]-3-{[(2S)-2-phenyl-2-piperidin-1-ylpropanoyl]oxy}-1-azoniabicyclo[2.2.2]octane chloride]	2 to 10 nM	–
CC(C(=O)O[C@H]1C[N+]2(CCc3cccc(Cl)c3)CCC1CC2)(c1ccccc1)N1CCSCC1 (single isomer, unassigned) [Example 99]	2 to 10 nM	–
CC(C(=O)O[C@H]1C[N+]2(CCc3cccc(Cl)c3)CCC1CC2)(c1cccs1)N1CCSCC1 (single isomer, unassigned) [Example 52]	< 2 nM	–
Cc1nc(-c2ccccc2)c(NC(=O)C[N+]23CCC(CC2)[C@@H](OC(=O)[C@](C)(c2ccccc2)N2CCCCC2)C3)s1 [Example 18, (3R)-1-{2-[(2-Methyl-4-phenyl-1,3-thiazol-5-yl)amino]-2-oxoethyl}-3-{[(2S)-2-pheny1-2-piperidin-1-ylpropanoyl]oxy}-1-azoniabicyclo[2.2.2]octane chloride]	2 to 10 nM	–
